This is an account of results in PubChem BioAssay AID266 (DTP/NCI, 2004).

Each structure is given as a SMILES string. Values joined by “and” are separate entries in the source; they are usually repeats but may differ in a detail not shown here. Equal values may be shown once. Inconclusive results are not listed.

The test system of the assay is Nude mice, LX-1 lung xenograft intrarenal, tumor weight T/C. The assay is described as follows: NCI In Vivo Anticancer Drug Screen. Data for tumor model Human Lung LX-1 Xenograft (intrarenal inoculation) in NU/NU BALB/C (nude) mice. The conditions noted are these: endpoint: mean tumor weight change, higher = larger tumour. How it is done:
The antitumor activity of compounds was measured in mice bearing transplantable tumors. Survival or tumor size were measured and the results are expressed as the measurement made in the treated group (T) divided by the measurement made in the vehicle treated control group (C). The tumor model used in this assay is Human Lung LX-1 Xenograft (intrarenal inoculation) in NU/NU BALB/C (nude) mice

The mark [1] stands for this setting: dose: 2.0 mg/kg/injection, schedule: Q01DX010 (sc), vehicle: saline.
Setting [2] is: dose: 50.0 mg/kg/injection, schedule: Q01DX010 (sc), vehicle: saline.
[3] abbreviates: dose: 200.0 mg/kg/injection, schedule: Q01DX010 (sc), vehicle: saline.
Setting [4] is: dose: 400.0 mg/kg/injection, schedule: Q01DX010 (sc), vehicle: saline.

In the case of `[N-]=[N+]=[N-]`, the T/C reads like this: (dose: 6.0 mg/kg/injection, schedule: Q04DX003 (ip), vehicle: water) 68 % of control; (dose: 24.0 mg/kg/injection, schedule: Q04DX003 (ip), vehicle: water) 73 % of control.
Turning to `C/C=C(\C)c1cc(=O)c2c(C)cc3c(c2o1)C(=O)c1c(O)c(C2CC(C)(N(C)C)C(OC(C)=O)C(C)O2)cc(C2CC(N(C)C)C(O)C(C)O2)c1C3=O` (configuration not stated), the T/C was 68 % of control (dose: 0.63 mg/kg/injection, schedule: Q04DX003 (sc), vehicle: saline); 48 % of control (dose: 1.25 mg/kg/injection, schedule: Q04DX003 (sc), vehicle: saline); 45 % of control (dose: 2.5 mg/kg/injection, schedule: Q04DX003 (sc), vehicle: saline); 51 % of control (dose: 5.0 mg/kg/injection, schedule: Q04DX003 (sc), vehicle: saline).
As to `O=CC(S)CO` (configuration not stated), the T/C reads like this: (dose: 100.0 mg/kg/injection, schedule: Q04DX003 (sc), vehicle: suspension in saline) 94 % of control; (dose: 200.0 mg/kg/injection, schedule: Q04DX003 (sc), vehicle: suspension in saline) 94 % of control; (dose: 400.0 mg/kg/injection, schedule: Q04DX003 (sc), vehicle: suspension in saline) 84 % of control.
As to `CCN(CC)CCOCCO`, the T/C by setting is: (dose: 150.0 mg/kg/injection, schedule: Q04DX003 (sc), vehicle: saline) 109 % of control; (dose: 300.0 mg/kg/injection, schedule: Q04DX003 (sc), vehicle: saline) 105 % of control; (dose: 600.0 mg/kg/injection, schedule: Q04DX003 (sc), vehicle: saline) 86 % of control; (dose: 1200.0 mg/kg/injection, schedule: Q04DX003 (sc), vehicle: saline) 77 % of control.
As to `N#Cc1cn(C2OC(CO)C(O)C2O)c2ncnc(N)c12` (configuration not stated), the T/C was 26 % of control (dose: 1.0 mg/kg/injection, schedule: Q01DX010 (sc), vehicle: saline) and 77 % of control under setting [1].
Take `Nc1nc(=S)c2[nH]cnc2[nH]1`: the T/C is 105 % of control (dose: 0.4 mg/kg/injection, schedule: Q01DX010 (sc), vehicle: Klucel (hydroxypropylcellulose) (HPC)); 76 % of control (dose: 1.6 mg/kg/injection, schedule: Q01DX010 (sc), vehicle: Klucel (hydroxypropylcellulose) (HPC)); 58 % of control (dose: 3.2 mg/kg/injection, schedule: Q01DX010 (sc), vehicle: Klucel (hydroxypropylcellulose) (HPC)).
Turning to `CN1CCc2c(c3ccccc3c3ccccc23)C1`, the T/C (dose: 150.0 mg/kg/injection, schedule: Q04DX003 (sc), vehicle: Klucel (hydroxypropylcellulose) (HPC)) is 58 % of control; the T/C (dose: 300.0 mg/kg/injection, schedule: Q04DX003 (sc), vehicle: Klucel (hydroxypropylcellulose) (HPC)) was 55 % of control; the T/C (dose: 600.0 mg/kg/injection, schedule: Q04DX003 (sc), vehicle: Klucel (hydroxypropylcellulose) (HPC)) was 48 % of control.
Regarding `N[C@H](C(=O)O)[C@@H]1CC(Cl)=NO1`, the T/C is, setting by setting: (dose: 0.5 mg/kg/injection, schedule: Q01DX010 (sc), vehicle: saline) 44 % of control; under setting [1], 223 % of control and 82 % of control; (dose: 2.0 mg/kg/injection, schedule: Q02DX005 (sc), vehicle: saline) 150 % of control; (dose: 4.0 mg/kg/injection, schedule: Q02DX005 (sc), vehicle: saline) 227 % of control; (dose: 8.0 mg/kg/injection, schedule: Q01DX010 (sc), vehicle: saline) 361 % of control; (dose: 8.0 mg/kg/injection, schedule: Q02DX005 (sc), vehicle: saline) 159 % of control. Moreover, the T/C (dose: 16.0 mg/kg/injection, schedule: Q01DX010 (sc), vehicle: saline) was 63 % of control; the T/C (dose: 16.0 mg/kg/injection, schedule: Q02DX005 (sc), vehicle: saline) was 253 % of control; the T/C (dose: 32.0 mg/kg/injection, schedule: Q01DX010 (sc), vehicle: saline) is 35 % of control; the T/C (dose: 32.0 mg/kg/injection, schedule: Q02DX005 (sc), vehicle: saline) was 68 % of control.
As for `Nc1ccn([C@@H](C=O)O[C@@H](C=O)CO)c(=O)n1`, the T/C (dose: 200.0 mg/kg/injection, schedule: Q04DX003 (sc), vehicle: saline) is 108 % of control.
As to `C[C@]12C=CC(=O)C=C1CC[C@@H]1[C@@H]2[C@@H](O)C[C@@]2(C)[C@H]1CC[C@]2(O)C(=O)CO`, the T/C (dose: 50.0 mg/kg/injection, schedule: Q01DX010 (sc), vehicle: Klucel (hydroxypropylcellulose) (HPC)) was 63 % of control.
In the case of `CC1=C(/C=C/C(C)=C/C=C/C(C)=C/C(=O)O)C(C)(C)CCC1`, the T/C (dose: 50.0 mg/kg/injection, schedule: Q01DX010 (sc), vehicle: saline with Tween-80) is 75 % of control.
For `CN(C)N=Nc1cccc(C(N)=O)c1`, the T/C by setting is: (dose: 25.0 mg/kg/injection, schedule: Q04DX003 (sc), vehicle: Klucel (hydroxypropylcellulose) (HPC)) 20 % of control; (dose: 200.0 mg/kg/injection, schedule: Q04DX003 (sc), vehicle: Klucel (hydroxypropylcellulose) (HPC)) -93 % of control.
Turning to `C1CN2CN3CCN(CN1C3)C2`, the T/C was 68 % of control under setting [2], 48 % of control under setting [3] and 23 % of control under setting [4].
For `CNNCc1ccc(C(=O)NC(C)C)cc1`, the T/C is, setting by setting: (dose: 50.0 mg/kg/injection, schedule: Q01DX010 (ip), vehicle: saline) -66 % of control; under setting [2], 2 % of control and 11 % of control; (dose: 100.0 mg/kg/injection, schedule: Q01DX010 (ip), vehicle: saline) -100 % of control; (dose: 100.0 mg/kg/injection, schedule: Q01DX010 (sc), vehicle: saline) 8 % of control; (dose: 166.66 mg/kg/injection, schedule: Q04DX003 (sc), vehicle: saline) 5 % of control; under setting [3], -71 % of control. For the same compound, the T/C runs as follows: (dose: 333.33 mg/kg/injection, schedule: Q04DX003 (sc), vehicle: saline) -38 % of control; under setting [4], -65 % of control; (dose: 666.65 mg/kg/injection, schedule: Q04DX003 (sc), vehicle: saline) -14 % of control.
In the case of `BrCCC1(CCBr)CCCCC1`, the T/C by setting is: (dose: 300.0 mg/kg/injection, schedule: Q04DX003 (sc), vehicle: water) 104 % of control; (dose: 600.0 mg/kg/injection, schedule: Q04DX003 (sc), vehicle: water) 89 % of control; (dose: 1200.0 mg/kg/injection, schedule: Q04DX003 (sc), vehicle: water) 85 % of control.
Turning to `COC1=C(OC)C(=O)C(SC/C=C(\C)CCCC(C)CCCC(C)CCCC(C)C)=CC1=O` (configuration not stated), the T/C by setting is: (dose: 300.0 mg/kg/injection, schedule: Q04DX003 (ip), vehicle: saline with Tween-80) 82 % of control; (dose: 600.0 mg/kg/injection, schedule: Q04DX003 (ip), vehicle: saline with Tween-80) 110 % of control; (dose: 1200.0 mg/kg/injection, schedule: Q04DX003 (ip), vehicle: saline with Tween-80) 72 % of control.
As for `O=P1(N(CCCl)CCCl)NCCCO1` (configuration not stated), the T/C reads like this: (dose: 25.0 mg/kg/injection, schedule: Q04DX003 (ip), vehicle: saline) 101 % of control; (dose: 50.0 mg/kg/injection, schedule: Q04DX003 (ip), vehicle: saline) 92 % of control; (dose: 100.0 mg/kg/injection, schedule: Q04DX003 (ip), vehicle: saline) 77 % of control; (dose: 200.0 mg/kg/injection, schedule: Q04DX003 (ip), vehicle: saline) 50 % of control.
On to `CC1CN1C(=O)NCCCCCCNC(=O)N1CC1C` (configuration not stated), for which the T/C (dose: 20.0 mg/kg/injection, schedule: Q04DX003 (sc), vehicle: Klucel (hydroxypropylcellulose) (HPC)) was 68 % of control.
As to `CC1=CC2c3cccc4[nH]cc(c34)CC2N(C)C1` (configuration not stated), the T/C is, setting by setting: (dose: 6.25 mg/kg/injection, schedule: Q04DX003 (ip), vehicle: suspension in saline) 93 % of control; (dose: 12.5 mg/kg/injection, schedule: Q04DX003 (ip), vehicle: suspension in saline) 111 % of control; (dose: 25.0 mg/kg/injection, schedule: Q04DX003 (ip), vehicle: suspension in saline) 115 % of control; (dose: 50.0 mg/kg/injection, schedule: Q04DX003 (ip), vehicle: suspension in saline) 115 % of control.
For the compound `COc1cc(C(C)(C)C)cc(OC)c1C(O)(c1c(OC)cc(C(C)(C)C)cc1OC)c1c(OC)cc(C(C)(C)C)cc1OC`, the T/C was 60 % of control (dose: 300.0 mg/kg/injection, schedule: Q04DX003 (sc), vehicle: saline with Tween-80); 54 % of control (dose: 600.0 mg/kg/injection, schedule: Q04DX003 (sc), vehicle: saline with Tween-80); 54 % of control (dose: 1200.0 mg/kg/injection, schedule: Q04DX003 (sc), vehicle: saline with Tween-80); 73 % of control (dose: 2400.0 mg/kg/injection, schedule: Q04DX003 (sc), vehicle: saline with Tween-80).
